We go through one compound from PMC9302676 (Chemsuschem, 2022).

Assay [1] addresses P450 BM3 (CYP102A1) (Priestia megaterium, UniProt P14779). The assay can be described thus: biochemical.
Assay [2] concerns the target P450 BM3 (CYP102A1) (Priestia megaterium, UniProt P14779, N320L/T412V/T437A). The assay can be described thus: biochemical.

P450 BM3 (CYP102A1) (Priestia megaterium, UniProt P14779), sequence (P14779 whole entry): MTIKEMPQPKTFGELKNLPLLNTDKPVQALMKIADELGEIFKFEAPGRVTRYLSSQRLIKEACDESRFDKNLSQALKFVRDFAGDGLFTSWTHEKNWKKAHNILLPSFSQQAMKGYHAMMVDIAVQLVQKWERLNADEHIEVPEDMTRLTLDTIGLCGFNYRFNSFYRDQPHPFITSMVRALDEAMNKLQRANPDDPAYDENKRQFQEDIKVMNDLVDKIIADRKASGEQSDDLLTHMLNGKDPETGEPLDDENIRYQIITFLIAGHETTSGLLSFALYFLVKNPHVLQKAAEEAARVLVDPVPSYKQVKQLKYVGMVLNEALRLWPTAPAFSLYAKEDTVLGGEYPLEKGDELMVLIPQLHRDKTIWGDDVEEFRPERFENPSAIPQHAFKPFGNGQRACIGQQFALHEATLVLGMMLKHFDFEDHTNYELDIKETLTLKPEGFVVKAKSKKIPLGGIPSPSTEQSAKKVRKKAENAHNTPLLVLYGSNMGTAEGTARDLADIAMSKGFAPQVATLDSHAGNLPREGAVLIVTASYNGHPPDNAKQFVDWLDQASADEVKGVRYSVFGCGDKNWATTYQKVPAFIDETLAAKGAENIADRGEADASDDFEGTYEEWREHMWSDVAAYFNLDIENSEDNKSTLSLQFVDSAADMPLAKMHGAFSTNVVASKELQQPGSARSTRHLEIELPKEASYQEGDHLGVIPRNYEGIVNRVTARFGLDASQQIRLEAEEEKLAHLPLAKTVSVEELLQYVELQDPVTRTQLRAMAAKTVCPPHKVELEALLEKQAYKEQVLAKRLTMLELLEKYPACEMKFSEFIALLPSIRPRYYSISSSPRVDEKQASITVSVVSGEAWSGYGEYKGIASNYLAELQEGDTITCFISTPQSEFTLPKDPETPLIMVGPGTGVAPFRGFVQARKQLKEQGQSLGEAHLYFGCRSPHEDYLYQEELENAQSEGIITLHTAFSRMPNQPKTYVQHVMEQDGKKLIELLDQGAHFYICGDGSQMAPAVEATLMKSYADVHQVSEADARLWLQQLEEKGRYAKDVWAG
P450 BM3 (CYP102A1) (Priestia megaterium, UniProt P14779, N320L/T412V/T437A), sequence (P14779 whole entry N320L/T412V/T437A): as the sequence (P14779 whole entry) above, with N320L, T412V, T437A counted along it

Broadly, the Kd is the equilibrium constant for the complex coming apart. Higher therefore signals lower affinity. With `CC1=CC(=O)CC(C)(C)C1` [α-isophorone], the Kd on P450 BM3 (CYP102A1) [1] is 6.85 ± 0.079 mM; at P450 BM3 (CYP102A1) [2], 6.263 ± 0.047 mM.
